Measured values reported in BindingDB's records for doi:10.7270/Q2HD7T4S (Sanford-Burnham Center For Chemical Genomics, 2008).
pIC50: −log10 of the molar value.

What follows are compounds tested against E3 ubiquitin-protein ligase XIAP (Homo sapiens, UniProt P98170) (assay: XIAP antagonists, biochemical, IAP family, fluorescence polarization (AID 1018)).
Sequence of E3 ubiquitin-protein ligase XIAP (P98170 whole entry): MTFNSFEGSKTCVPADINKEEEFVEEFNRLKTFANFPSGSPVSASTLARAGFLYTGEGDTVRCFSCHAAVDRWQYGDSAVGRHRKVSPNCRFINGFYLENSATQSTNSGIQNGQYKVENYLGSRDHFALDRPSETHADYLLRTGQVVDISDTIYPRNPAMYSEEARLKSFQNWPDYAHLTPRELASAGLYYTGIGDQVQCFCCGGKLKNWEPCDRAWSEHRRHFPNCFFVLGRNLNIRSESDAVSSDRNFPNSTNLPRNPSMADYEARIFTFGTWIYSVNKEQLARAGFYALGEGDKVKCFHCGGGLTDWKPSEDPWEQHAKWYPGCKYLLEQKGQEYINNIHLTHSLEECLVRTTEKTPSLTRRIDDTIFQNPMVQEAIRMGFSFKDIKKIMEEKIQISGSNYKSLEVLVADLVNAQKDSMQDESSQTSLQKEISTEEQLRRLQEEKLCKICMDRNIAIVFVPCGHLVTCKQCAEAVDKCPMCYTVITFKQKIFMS

pIC50, < 4.00:
COc1cc(CN=Nc2nc(Nc3ccc(C)cc3)nc(-n3nc(C)cc3C)n2)cc(OC)c1OC
COc1cc(CN=Nc2cc(C)nc(NS(=O)(=O)c3ccc(C)cc3)n2)ccc1O
Cc1cc(=O)[nH]c(N=NC(CC(C)C)CC(C)C)n1
O=C(O)c1cccc(-n2c(O)c3c(c2O)CC(Cl)=CC3)c1 [3-[5-chloranyl-1,3-bis(oxidanylidene)-3a,4,7,7a-tetrahydroisoindol-2-yl]benzoic acid]
COc1ccc(C(=O)C2C(=O)C(=O)N(CC3CCCO3)C2c2cccc(OC)c2)cc1 (stereo not given) [(4Z)-4-[hydroxy-(4-methoxyphenyl)methylene]-5-(3-methoxyphenyl)-1-(tetrahydrofurfuryl)pyrrolidine-2,3-quinone]
O=C(CC=Nc1ccc(Nc2ccccc2)cc1)c1cccs1 [(E)-3-(4-anilinoanilino)-1-thiophen-2-yl-2-propen-1-one]
COc1cccc(C(=O)CC=Nc2cc(C)ccc2O)c1 [MLS000088060]
COc1ccc(CN=Nc2nc(N3CCCC3)nc(N3CCCC3)n2)cc1 [MLS000704198]
CCOc1ccccc1NC(=O)C1C(C)=NC(=S)NC1c1cccs1 (stereo not given) [N-(2-ethoxyphenyl)-6-methyl-2-sulfanylidene-4-thiophen-2-yl-3,4-dihydro-1H-pyrimidine-5-carboxamide]
Cc1cccc(N(CC(N)=O)c2sc(=O)n(-c3ccccc3)c2O)c1 [SMR000009552]
